Results published in US8721858B2, “Non-focusing tracers for indirect detection in electrophoretic displacement techniques” (The Board of Trustees of the Leland Stanford Junior …, priority 2010, dated 2014).

What was measured:
[1] = limiting fully ionized mobility, value = mobility × 10^9; cited from earlier work
[2] = Estimated effective mobilities in ITP zones of FIGS. 4a-b; details: % of −17.8×10^−9 m^2V^−1s^−1
Text: We used numerical codes to predict the composition, pH, and fluorescence intensity of each zone for assay design and theory validation. Transient and steady state problems can be simulated with programs such as Simul 5, or a MATLAB-based program developed in-house. For fast solution of most problems, however, we used a steady-state solver written in-house based on the RFQ method described by Beckers and Everaerts. This code adjusts ion mobility and pKa for ionic strength based on the Davies equation and Robinson-Stokes model, respectively. See Table 1 above for the limiting electrophoretic mobilities and pKas of example chemicals used in simulations.
Further details relating to FIGS. 4a-b are as follows. FIGS. 4a-b show detection of HEPES and MOPS with a counterionic (FIG. 4a) and overspeeding coionic (FIG. 4b) fluorescent non-focusing tracer. Top panes are ratios of zone intensities IA/IL, and bottom panes are corresponding images. The zones are, from left to right, TE (tricine), HEPES, MOPS, and LE (MES). The concentration of the tracer increases in high mobility zones. The mobility of the coionic tracer Alexa Fluor 488 (AF488) is close to that of MES, so it is especially sensitive in this region. […]. […] For the left plots, the LE contains 50 μM R6G. For the right plots, the TE contains 5 μM AF488. […].
As discussed in Theory, the sensitivity of counterspeeders tends to be approximately uniform for all analyte mobilities. In contrast, underspeeders and overspeeders offer the potential advantage of extreme sensitivity to analytes with mobilities approximately equal to that of the tracer. In FIGS. 4a-b, we estimate the effective mobility of the LE (MES) to be −17.8×10^−9 m^2V^−1s^−1, and the effective mobilities of MOPS, HEPES, and tricine to be respectively 58%, 41%, and 30% of that value. For the counterspeeder of FIG. 4a, the ratios of analyte-to-LE zone intensities are similar to the effective mobility ratios for MOPS, HEPES, and tricine (I/IL values of 0.69, 0.51, and 0.34, respectively). […]

Row | Structure (SMILES) | fully-ionized Mobility · 10^9 [1] | effective mobility relative to that of the LE (MES) [2] [%]
1 | CC(=O)O [Acetic acid] | (−1, 42.4) m^2V^−1s^−1 | –
2 | [Ba+2].[OH-].[OH-] [Ba(OH)2] | (+2 ,66) m^2V^−1s^−1 | –
3 | Cl [Chloride] | (−1, 79.1) m^2V^−1s^−1 | –
4 | O=S(=O)(O)CCN1CCN(CCO)CC1 [HEPES, 2-[4-(2-hydroxyethyl)piperazin-1-yl]ethanesulfonic acid] | (−1, 21.8) m^2V^−1s^−1 | 41
5 | O=S(=O)(O)CCCN1CCOCC1 [MOPS, 3-morpholinopropane-1-sulfonic acid] | – | 58
6 | O=C(O)CNC(CO)(CO)CO [Tricine, N-(2-Hydroxy-1,1-bis(hydroxymethyl)ethyl)glycine] | (−1, 26.6) m^2V^−1s^−1 | 30
7 | NC(CO)(CO)CO [Tris, 2-Amino-2-hydroxymethyl-propane-1,3-diol] | (−1, 29.5) m^2V^−1s^−1 | –
